{"source": "ChEMBL document CHEMBL3817795", "about": "“Identification and optimisation of a series of N-(4-anilino-2-pyridyl)acetamide activin receptor-like kinase 1 (ALK1) inhibitors” (Medchemcomm, 2016)", "key": {"[1]": {"target": "Cyclin-dependent kinase 2 (Homo sapiens) (UniProt P24941)", "experiment": "Inhibition of human recombinant full-length CDK2 expressed in Escherichia coli at 1 uM after 30 mins"}, "[2]": {"target": "Activin receptor type-1 (Homo sapiens, UniProt Q04771)", "experiment": "Inhibition of human recombinant GST-tagged ALK2 (amino acid 147 end) by FRET assay"}, "[3]": {"target": "Tyrosine-protein kinase SYK (Homo sapiens) (UniProt P43405)", "experiment": "Inhibition of SYK (unknown origin) at 1 uM"}, "[4]": {"target": "Bone morphogenetic protein receptor type-1B (Homo sapiens, UniProt O00238)", "experiment": "Inhibition of human recombinant N-terminal GST-tagged ALK6 (149 amino acids end) expressed in baculovirus infected Sf9 insect cells by FRET assay"}, "[5]": {"experiment": "Oral bioavailability in Han Wistar rat", "assay_type": "ADME, organism-based", "settings": "in vivo"}, "[6]": {"target": "Serine/threonine-protein kinase D1 (Homo sapiens) (UniProt Q15139)", "experiment": "Inhibition of human recombinant full-length PKD1 expressed in insect Sf21 cells at 1 uM using KKLNRTLSVA as substrate after 30 mins"}, "[7]": {"target": "Mitogen-activated protein kinase 9 (Homo sapiens) (UniProt P45984)", "experiment": "Inhibition of MAPK9 (unknown origin) at 1 uM"}, "[8]": {"target": "Tyrosine-protein kinase BTK (Homo sapiens) (UniProt Q06187)", "experiment": "Inhibition of BTK (unknown origin) at 1 uM"}, "[9]": {"target": "Inhibitor of nuclear factor kappa-B kinase subunit epsilon (Homo sapiens) (UniProt Q14164)", "sequence (Q14164 whole entry)": "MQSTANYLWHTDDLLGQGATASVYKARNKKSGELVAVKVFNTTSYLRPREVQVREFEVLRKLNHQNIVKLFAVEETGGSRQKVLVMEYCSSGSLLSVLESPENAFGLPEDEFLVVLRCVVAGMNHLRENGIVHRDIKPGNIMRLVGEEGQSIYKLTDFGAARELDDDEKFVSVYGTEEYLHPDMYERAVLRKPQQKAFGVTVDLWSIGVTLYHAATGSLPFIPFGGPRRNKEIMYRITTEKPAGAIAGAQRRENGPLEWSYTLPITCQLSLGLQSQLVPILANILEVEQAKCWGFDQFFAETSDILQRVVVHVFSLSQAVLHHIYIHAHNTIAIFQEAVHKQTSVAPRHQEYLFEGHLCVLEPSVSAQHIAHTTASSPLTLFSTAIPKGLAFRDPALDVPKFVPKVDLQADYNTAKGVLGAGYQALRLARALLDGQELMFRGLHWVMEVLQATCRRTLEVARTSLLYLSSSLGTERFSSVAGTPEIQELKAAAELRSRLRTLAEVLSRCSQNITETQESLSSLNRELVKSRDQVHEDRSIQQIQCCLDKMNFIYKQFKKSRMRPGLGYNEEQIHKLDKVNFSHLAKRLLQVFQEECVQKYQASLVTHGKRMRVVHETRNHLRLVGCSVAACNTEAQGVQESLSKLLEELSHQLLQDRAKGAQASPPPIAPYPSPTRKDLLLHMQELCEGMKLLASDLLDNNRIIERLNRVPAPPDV", "experiment": "Inhibition of human recombinant full-length IKKepsilon expressed in insect Sf21 cells at 1 uM using MBP as substrate after 30 mins"}, "[10]": {"target": "3-phosphoinositide-dependent protein kinase 1 (Homo sapiens) (UniProt O15530)", "sequence (O15530 whole entry)": "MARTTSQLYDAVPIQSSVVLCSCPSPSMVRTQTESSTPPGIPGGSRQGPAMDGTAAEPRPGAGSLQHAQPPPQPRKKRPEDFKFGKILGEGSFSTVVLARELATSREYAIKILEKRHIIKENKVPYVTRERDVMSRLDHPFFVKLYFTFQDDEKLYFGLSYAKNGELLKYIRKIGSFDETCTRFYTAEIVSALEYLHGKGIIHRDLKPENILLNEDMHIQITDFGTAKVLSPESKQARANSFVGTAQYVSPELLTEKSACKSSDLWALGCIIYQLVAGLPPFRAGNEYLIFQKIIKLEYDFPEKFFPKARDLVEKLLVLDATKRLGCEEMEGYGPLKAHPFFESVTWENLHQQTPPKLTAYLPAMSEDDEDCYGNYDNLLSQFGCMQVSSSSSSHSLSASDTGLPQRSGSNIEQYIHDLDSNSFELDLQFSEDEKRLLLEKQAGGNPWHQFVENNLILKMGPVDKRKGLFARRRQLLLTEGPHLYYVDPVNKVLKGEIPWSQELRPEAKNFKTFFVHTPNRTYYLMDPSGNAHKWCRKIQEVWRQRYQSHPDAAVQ", "experiment": "Inhibition of PDPK1 (unknown origin) at 1 uM"}, "[11]": {"target": "MAP kinase-activated protein kinase 5 (Homo sapiens) (UniProt Q8IW41)", "sequence (Q8IW41 whole entry)": "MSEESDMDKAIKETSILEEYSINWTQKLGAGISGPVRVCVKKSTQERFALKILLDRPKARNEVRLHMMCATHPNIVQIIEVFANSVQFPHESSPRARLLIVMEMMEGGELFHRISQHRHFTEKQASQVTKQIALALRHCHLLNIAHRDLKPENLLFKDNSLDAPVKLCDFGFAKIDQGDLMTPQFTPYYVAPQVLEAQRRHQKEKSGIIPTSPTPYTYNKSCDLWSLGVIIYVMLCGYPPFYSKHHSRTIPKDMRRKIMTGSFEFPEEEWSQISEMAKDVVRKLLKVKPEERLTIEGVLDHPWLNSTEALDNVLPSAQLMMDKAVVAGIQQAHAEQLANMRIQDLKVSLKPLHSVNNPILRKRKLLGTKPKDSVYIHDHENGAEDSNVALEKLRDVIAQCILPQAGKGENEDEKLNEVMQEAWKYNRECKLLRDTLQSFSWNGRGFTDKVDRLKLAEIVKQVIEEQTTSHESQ", "experiment": "Inhibition of MAPKAPK5 (unknown origin) at 1 uM"}, "[12]": {"species": "Homo sapiens", "experiment": "Inhibition of human recombinant full-length PKA expressed in Escherichia coli at 1 uM using LRRASLG as substrate after 30 mins"}, "[13]": {"target": "Dual specificity tyrosine-phosphorylation-regulated kinase 3 (Homo sapiens) (UniProt O43781)", "experiment": "Inhibition of human recombinant full-length DYRK3 expressed in Escherichia coli at 1 uM using KKISGRLSPIMTEQ as substrate after 30 mins"}, "[14]": {"target": "Mitogen-activated protein kinase 14 (Homo sapiens) (UniProt Q16539)", "sequence (Q16539 whole entry)": "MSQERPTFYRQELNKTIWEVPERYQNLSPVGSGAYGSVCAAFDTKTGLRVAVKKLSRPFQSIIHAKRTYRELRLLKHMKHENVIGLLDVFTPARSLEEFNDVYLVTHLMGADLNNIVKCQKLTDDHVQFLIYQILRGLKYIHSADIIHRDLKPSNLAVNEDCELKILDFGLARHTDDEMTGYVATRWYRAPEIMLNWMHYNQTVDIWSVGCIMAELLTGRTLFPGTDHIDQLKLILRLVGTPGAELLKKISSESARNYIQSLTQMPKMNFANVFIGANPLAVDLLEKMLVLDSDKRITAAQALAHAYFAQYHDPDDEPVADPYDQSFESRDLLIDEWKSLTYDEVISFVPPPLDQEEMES", "experiment": "Inhibition of human recombinant full-length p38alpha at 1 uM after 30 mins"}, "[15]": {"system": "RAC-beta serine/threonine-protein kinase (Homo sapiens), P31751 [S474D]", "sequence (P31751 whole entry S474D, the tested form may be a part)": "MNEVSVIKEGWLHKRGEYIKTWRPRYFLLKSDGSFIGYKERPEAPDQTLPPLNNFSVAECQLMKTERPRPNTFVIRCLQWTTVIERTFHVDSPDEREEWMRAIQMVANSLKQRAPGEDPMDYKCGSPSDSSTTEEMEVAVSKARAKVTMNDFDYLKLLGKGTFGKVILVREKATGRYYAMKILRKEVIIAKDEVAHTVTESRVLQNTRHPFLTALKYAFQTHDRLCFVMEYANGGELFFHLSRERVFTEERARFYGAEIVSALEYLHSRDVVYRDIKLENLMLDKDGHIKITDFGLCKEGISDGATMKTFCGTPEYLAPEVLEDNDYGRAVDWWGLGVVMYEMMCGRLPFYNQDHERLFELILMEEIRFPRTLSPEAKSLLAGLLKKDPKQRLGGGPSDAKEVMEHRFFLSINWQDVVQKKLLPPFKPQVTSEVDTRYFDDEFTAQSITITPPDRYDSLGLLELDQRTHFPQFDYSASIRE", "experiment": "Inhibition of human recombinant AKT2 S474D mutant (120 to 481 residues) expressed in insect Sf21 cells at 1 uM using GRPRTSSFAEGKK as substrate after 30 mins"}, "[16]": {"target": "Protein kinase C alpha type (Homo sapiens) (UniProt P17252)", "experiment": "Inhibition of human recombinant full-length PKCa expressed in insect Sf21 cells at 1 uM using histone H1 as substrate after 30 mins"}, "[17]": {"target": "Fibroblast growth factor receptor 1 (Homo sapiens) (UniProt P11362)", "experiment": "Inhibition of human recombinant FGFR1 (400 to 820 residues) expressed in insect Sf21 cells at 1 uM using poly(Glu4-Tyr1) as substrate after 30 mins"}, "[18]": {"target": "Serine/threonine-protein kinase pim-3 (Homo sapiens) (UniProt Q86V86)", "experiment": "Inhibition of human recombinant full-length PIM3 expressed in insect Sf21 cells at 1 uM using RSRHSSYPAGT as substrate after 30 mins"}, "[19]": {"target": "Activin receptor type-1B (Homo sapiens, UniProt P36896)", "experiment": "Inhibition of human recombinant GST-tagged ALK4 expressed in baculovirus by FRET assay"}, "[20]": {"target": "Serine/threonine-protein kinase TBK1 (Homo sapiens) (UniProt Q9UHD2)", "experiment": "Inhibition of human recombinant full-length TBK1 expressed in insect Sf21 cells at 1 uM using AKPKGNKDYHLQTCCGSLAYRRR as substrate"}, "[21]": {"target": "Ephrin type-B receptor 3 (Homo sapiens) (UniProt P54753)", "experiment": "Inhibition of EPHB3 (unknown origin) at 1 uM"}, "[22]": {"target": "Mitogen-activated protein kinase 13 (Homo sapiens) (UniProt O15264)", "experiment": "Inhibition of MAPK13 (unknown origin) at 1 uM"}, "[23]": {"target": "T1, Activin receptor type-1-like (Homo sapiens, UniProt P37023)", "T1 sequence (P37023 whole entry)": "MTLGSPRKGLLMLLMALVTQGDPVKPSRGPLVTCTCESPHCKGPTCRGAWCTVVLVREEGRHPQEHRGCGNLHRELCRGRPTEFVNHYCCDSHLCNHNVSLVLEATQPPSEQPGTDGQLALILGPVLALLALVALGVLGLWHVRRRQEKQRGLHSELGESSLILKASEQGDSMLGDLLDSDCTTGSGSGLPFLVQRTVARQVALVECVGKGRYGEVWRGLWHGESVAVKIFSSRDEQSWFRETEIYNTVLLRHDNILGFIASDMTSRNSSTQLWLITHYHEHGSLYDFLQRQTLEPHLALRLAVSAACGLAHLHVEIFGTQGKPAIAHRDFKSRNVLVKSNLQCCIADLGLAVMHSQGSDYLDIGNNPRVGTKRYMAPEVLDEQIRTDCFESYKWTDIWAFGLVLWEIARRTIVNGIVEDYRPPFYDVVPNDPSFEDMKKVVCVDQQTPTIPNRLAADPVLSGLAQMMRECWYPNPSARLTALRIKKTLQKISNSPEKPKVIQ", "experiment": "Inhibition of ALK1 in HMEC-1 assessed as translocation of pSMAD1/5"}, "[24]": {"target": "Serine/threonine-protein kinase Nek6 (Homo sapiens) (UniProt Q9HC98)", "sequence (Q9HC98 whole entry, the tested form may be a part)": "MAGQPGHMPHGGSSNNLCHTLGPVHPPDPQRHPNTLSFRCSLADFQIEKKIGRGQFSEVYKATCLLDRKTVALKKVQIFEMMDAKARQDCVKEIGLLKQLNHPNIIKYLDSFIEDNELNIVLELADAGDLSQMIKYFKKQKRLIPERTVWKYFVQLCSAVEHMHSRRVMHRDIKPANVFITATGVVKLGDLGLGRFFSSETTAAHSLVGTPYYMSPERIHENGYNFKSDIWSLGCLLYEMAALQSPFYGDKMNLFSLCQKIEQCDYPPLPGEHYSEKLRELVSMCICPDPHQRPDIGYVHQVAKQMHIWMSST", "experiment": "Inhibition of human recombinant NEK6 (8 to 313 residues) expressed in insect Sf21 cells at 1 uM using FLAKSFGSPNRAYKK as substrate after 30 mins"}, "[25]": {"target": "Proto-oncogene tyrosine-protein kinase Src (Homo sapiens) (UniProt P12931)", "sequence (P12931 2-536 limits assumed)": "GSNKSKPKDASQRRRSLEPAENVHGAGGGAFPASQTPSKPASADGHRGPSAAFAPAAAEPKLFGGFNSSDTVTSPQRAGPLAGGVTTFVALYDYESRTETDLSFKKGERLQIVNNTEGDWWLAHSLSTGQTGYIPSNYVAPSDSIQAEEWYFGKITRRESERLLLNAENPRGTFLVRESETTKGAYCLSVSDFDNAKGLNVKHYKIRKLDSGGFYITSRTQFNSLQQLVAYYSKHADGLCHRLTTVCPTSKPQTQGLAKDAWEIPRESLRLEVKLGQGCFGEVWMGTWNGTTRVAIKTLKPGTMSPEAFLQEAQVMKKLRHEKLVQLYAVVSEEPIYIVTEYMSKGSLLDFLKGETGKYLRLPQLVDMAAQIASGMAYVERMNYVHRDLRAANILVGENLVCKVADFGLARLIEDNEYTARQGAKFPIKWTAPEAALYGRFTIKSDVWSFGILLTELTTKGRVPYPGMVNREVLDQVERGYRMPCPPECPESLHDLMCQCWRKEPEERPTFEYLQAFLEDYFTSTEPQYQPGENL", "experiment": "Inhibition of Src (unknown origin) by HTRF assay"}, "[26]": {"target": "Ribosomal protein S6 kinase alpha-3 (Homo sapiens) (UniProt P51812)", "experiment": "Inhibition of MAPKAPK1B (unknown origin) at 1 uM"}, "[27]": {"target": "Ribosomal protein S6 kinase alpha-5 (Homo sapiens) (UniProt O75582)", "experiment": "Inhibition of human recombinant full-length MSK1 at 1 uM after 30 mins"}, "[28]": {"target": "Vascular endothelial growth factor receptor 1 (Homo sapiens) (UniProt P17948)", "experiment": "Inhibition of human recombinant full-length FLT1 at 1 uM after 30 mins"}, "[29]": {"target": "Homeodomain-interacting protein kinase 2 (Homo sapiens) (UniProt Q9H2X6)", "experiment": "Inhibition of human recombinant HIPK2 (165 to 564 residues) expressed in Escherichia coli at 1 uM after 30 mins"}, "[30]": {"target": "MAP kinase-interacting serine/threonine-protein kinase 1 (Homo sapiens) (UniProt Q9BUB5)", "experiment": "Inhibition of human recombinant full-length MNK1 expressed in Escherichia coli at 1 uM using eIF4E as substrate after 30 mins"}, "[31]": {"target": "MAP kinase-activated protein kinase 2 (Homo sapiens) (UniProt P49137)", "experiment": "Inhibition of human recombinant […] MAPKAPK2 (46 to 400 residues) expressed in Escherichia coli at 1 uM after 30 mins"}, "[32]": {"target": "Inhibitor of nuclear factor kappa-B kinase subunit beta (Homo sapiens) (UniProt O14920)", "experiment": "Inhibition of human recombinant full-length IKKbeta expressed in insect Sf21 cells at 1 uM using LDDRHDSGLDSMKDEEY as substrate after 30 mins"}, "[33]": {"target": "MAP/microtubule affinity-regulating kinase 3 (Homo sapiens) (UniProt P27448)", "sequence (P27448 whole entry, looked up)": "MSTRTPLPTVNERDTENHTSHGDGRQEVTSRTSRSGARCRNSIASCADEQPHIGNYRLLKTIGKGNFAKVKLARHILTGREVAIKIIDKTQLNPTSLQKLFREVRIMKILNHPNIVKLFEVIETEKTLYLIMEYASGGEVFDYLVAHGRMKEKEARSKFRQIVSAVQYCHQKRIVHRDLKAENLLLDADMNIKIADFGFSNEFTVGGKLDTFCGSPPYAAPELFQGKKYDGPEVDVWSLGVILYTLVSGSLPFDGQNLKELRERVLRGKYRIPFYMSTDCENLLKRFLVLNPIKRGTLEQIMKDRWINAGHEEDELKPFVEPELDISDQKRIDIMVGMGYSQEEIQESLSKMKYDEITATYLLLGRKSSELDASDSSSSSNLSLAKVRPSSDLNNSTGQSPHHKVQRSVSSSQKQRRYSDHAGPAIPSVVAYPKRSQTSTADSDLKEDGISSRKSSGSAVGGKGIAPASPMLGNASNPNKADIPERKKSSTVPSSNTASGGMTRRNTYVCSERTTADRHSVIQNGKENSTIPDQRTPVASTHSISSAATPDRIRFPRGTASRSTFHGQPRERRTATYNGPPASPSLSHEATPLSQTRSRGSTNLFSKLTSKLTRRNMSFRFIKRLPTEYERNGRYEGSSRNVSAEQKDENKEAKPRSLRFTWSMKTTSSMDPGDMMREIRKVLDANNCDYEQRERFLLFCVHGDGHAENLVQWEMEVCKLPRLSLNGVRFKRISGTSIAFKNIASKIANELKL", "experiment": "Inhibition of human recombinant full-length MARK3 expressed in insect Sf21 cells at 1 uM using KKKVSRSGLYRSPSMPENLNRPR as substrate after 30 mins"}, "[34]": {"target": "Proto-oncogene tyrosine-protein kinase Src (Homo sapiens) (UniProt P12931)", "experiment": "Inhibition of human recombinant full-length Src expressed in insect Sf21 cells at 1 uM using KVEKIGEGTYGVVYK as substrate after 30 mins"}, "[35]": {"target": "T1, Activin receptor type-1-like", "experiment": "Inhibition of human recombinant GST-tagged ALK1 expressed in baculovirus by FRET assay"}, "[36]": {"target": "Insulin receptor (Homo sapiens) (UniProt P06213)", "experiment": "Inhibition of INSR (unknown origin) at 1 uM"}}, "data": [{"smiles": "O=C(Nc1cc(Nc2c(Cl)cnc3c2OCO3)ccn1)C1CC1", "values": [{"measurement": "inhibition", "setting": "[1]", "result": "< 80", "unit": "%"}, {"measurement": "IC50", "setting": "[2]", "result": 0.0012, "unit": "µM"}, {"measurement": "inhibition", "setting": "[3]", "result": "< 80", "unit": "%"}, {"measurement": "IC50", "setting": "[4]", "result": 1.3, "unit": "µM"}, {"measurement": "bioavailability", "setting": "[5]", "result": 38, "unit": "%"}, {"measurement": "inhibition", "setting": "[6]", "result": "< 80", "unit": "%"}, {"measurement": "inhibition", "setting": "[7]", "result": "< 80", "unit": "%"}, {"measurement": "inhibition", "setting": "[8]", "result": "< 80", "unit": "%"}, {"measurement": "inhibition", "setting": "[9]", "result": "< 80", "unit": "%"}, {"measurement": "inhibition", "setting": "[10]", "result": "< 80", "unit": "%"}, {"measurement": "inhibition", "setting": "[11]", "result": "< 80", "unit": "%"}, {"measurement": "inhibition", "setting": "[12]", "result": "< 80", "unit": "%"}, {"measurement": "inhibition", "setting": "[13]", "result": "< 80", "unit": "%"}, {"measurement": "inhibition", "setting": "[14]", "result": "< 80", "unit": "%"}, {"measurement": "inhibition", "setting": "[15]", "result": "< 80", "unit": "%"}, {"measurement": "inhibition", "setting": "[16]", "result": "< 80", "unit": "%"}, {"measurement": "inhibition", "setting": "[17]", "result": "< 80", "unit": "%"}, {"measurement": "inhibition", "setting": "[18]", "result": "< 80", "unit": "%"}, {"measurement": "IC50", "setting": "[19]", "result": 0.031, "unit": "µM"}, {"measurement": "inhibition", "setting": "[20]", "result": "< 80", "unit": "%"}, {"measurement": "inhibition", "setting": "[21]", "result": "< 80", "unit": "%"}, {"measurement": "inhibition", "setting": "[22]", "result": "< 80", "unit": "%"}, {"measurement": "IC50", "setting": "[23]", "result": 0.045, "unit": "µM"}, {"measurement": "inhibition", "setting": "[24]", "result": "< 80", "unit": "%"}, {"measurement": "INH", "setting": "[25]", "result": 4.4, "unit": "µM"}, {"measurement": "inhibition", "setting": "[26]", "result": "< 80", "unit": "%"}, {"measurement": "inhibition", "setting": "[27]", "result": "< 80", "unit": "%"}, {"measurement": "inhibition", "setting": "[28]", "result": "< 80", "unit": "%"}, {"measurement": "inhibition", "setting": "[29]", "result": "< 80", "unit": "%"}, {"measurement": "inhibition", "setting": "[30]", "result": "< 80", "unit": "%"}, {"measurement": "inhibition", "setting": "[31]", "result": "< 80", "unit": "%"}, {"measurement": "inhibition", "setting": "[32]", "result": "< 80", "unit": "%"}, {"measurement": "inhibition", "setting": "[33]", "result": "< 80", "unit": "%"}, {"measurement": "inhibition", "setting": "[34]", "result": "< 80", "unit": "%"}, {"measurement": "IC50", "setting": "[35]", "result": 0.0011, "unit": "µM"}, {"measurement": "inhibition", "setting": "[36]", "result": "< 80", "unit": "%"}]}]}
